{
  "source": "patent US6756037B2",
  "about": "“Polymer conjugates of biologically active agents and extension moieties for facilitating conjugation of biologically active agents to polymeric terminal groups” (Enzon, Inc., priority 2000, dated 2004)",
  "tested_on": "P388/0 cell lines",
  "experiment": "Cytotoxicity assay, growth inhibition of P388/0 cells (Alamar Blue)",
  "type": "cell-based",
  "details": "3 days incubation at 37° C., drug concentration inhibiting growth of cells by 50%",
  "description": "Cell Lines and Cytotoxicity Assays. Studies using P388/0 cell lines for IC50 (drug concentration inhibiting growth of cells by 50%) were maintained and conducted using standard procedures. Briefly, for IC50 determination, cells were seeded into the microwell plates at a density of 2×10^3 cells per 50 μL per well. Plates were incubated at 37° C. in a humidified incubator with 5% CO2 for 3 days. Cell growth was measured by the addition of 10 μL/well of Alamar Blue (Alamar Biosciences, Inc., Sacramento, Calif.) and the plates were incubated a further 4 hours at 37° C. The IC50 values for each compound were determined from absorbance versus dilution factor plots. All cell cultures for animal implantation were maintained at 37° C. in a humidified atmosphere of 5% CO2/[…] and subcultured once a week. All cell lines were periodically tested for Mycoplasma and were Mycoplasma free.",
  "data": [
    {"smiles": "Nc1ccn([C@@H]2O[C@H](CO)[C@@H](O)[C@@H]2O)c(=O)n1", "note": "[Ara-C, ara-C]", "values": [
      {"measurement": "IC50", "result": 10, "unit": "nM"}
    ]}
  ]
}
